The test system of one series is Y. pseudotuberculosis. The series is described as follows: microbe, parasite or virus in culture. Conditions: Yersinia pseudotuberculosis, J774, read-out: % Cytotoxicity.
For a further series, the system named is P. aeruginosa. The series is described as follows: P. aeruginosa cytotoxicity whole cell assay (J774 cells, LDH release). Conditions: relative to vehicle treated cells infected with wild type P. aeruginosa. For orientation: LDH in the medium is a marker of cell lysis.
In a further series the target is T1, ExsA (Pseudomonas aeruginosa, UniProt P26993).
T1 construct: made in house
T1 sequence (P26993 1-278): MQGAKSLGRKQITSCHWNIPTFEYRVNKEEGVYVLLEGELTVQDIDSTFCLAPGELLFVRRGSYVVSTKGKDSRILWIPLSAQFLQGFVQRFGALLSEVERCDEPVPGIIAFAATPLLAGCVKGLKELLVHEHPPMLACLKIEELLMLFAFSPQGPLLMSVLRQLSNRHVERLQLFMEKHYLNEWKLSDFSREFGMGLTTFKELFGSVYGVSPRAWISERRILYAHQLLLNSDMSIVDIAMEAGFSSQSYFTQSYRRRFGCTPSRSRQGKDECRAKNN
The series is described as follows: Chemiluminescence-based ExsA-DNA binding assay. On the set-up: species or system P. aeruginosa. Conditions: Table 7, cell-free system; read-out: ExsA EC50.

For another series, the target named is LcrF (VirF) (Yersinia pestis, UniProt P28808). The series is described as follows: biochemical. The class given is binding, Y. pseudotuberculosis.
LcrF (VirF), sequence (P28808 whole entry, looked up): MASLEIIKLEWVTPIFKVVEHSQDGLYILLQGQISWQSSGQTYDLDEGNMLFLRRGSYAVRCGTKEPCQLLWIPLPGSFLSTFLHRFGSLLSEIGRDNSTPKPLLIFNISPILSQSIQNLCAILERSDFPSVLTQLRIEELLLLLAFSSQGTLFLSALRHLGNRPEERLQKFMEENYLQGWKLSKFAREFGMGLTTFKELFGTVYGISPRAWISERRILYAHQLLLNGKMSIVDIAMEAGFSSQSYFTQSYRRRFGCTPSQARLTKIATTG
The mark [1] stands for this setting: EC50 for inhibition of LcrF(VirF)-DNA binding.
The mark [2] stands for this setting: read-out: EC50 for inhibition of LcrF(VirF)-DNA binding.

Where two headings read alike, the source gives them in different places.

The term EC50 denotes the concentration at which the effect is half-maximal.

Consider `CCOP(=O)(Cc1cc(/C=C/C(=O)Nc2ccc(-c3nc4ccc([N+](=O)[O-])cc4n3O)cc2)ccc1F)OCC` [EF], for which the activity at 50 µg/mL in the series on Y. pseudotuberculosis is less than 75%. Also, the “Cytotoxicity at 50 μg/mL Pseudomonas” value in the series on P. aeruginosa is reported as “* (reduced P. aeruginosa cytotoxicity to 99-75% of untreated, wild type levels at 50 mg/mL)”.

`CC(=O)c1ccc(/C=C/C(=O)Nc2ccc(-c3nc4ccc(S(C)(=O)=O)cc4n3O)cc2)cc1` [GK]: the EC50 at ExsA was greater than 25 µM. The “Cytotoxicity at 50 μg/mL Pseudomonas” value with P. aeruginosa is listed as “* (reduced P. aeruginosa cytotoxicity to 99-75% of untreated, wild type levels at 50 mg/mL)”.

For the compound `CN(C)CCOc1cc2nc(-c3ccc(NC(=O)/C=C/c4ccc(F)cc4)cc3)n(O)c2cc1[N+](=O)[O-]` [FS], the EC50 at ExsA was greater than 25 µM. Moreover, the “Cytotoxicity at 50 μg/mL Pseudomonas” value with P. aeruginosa was “* (reduced P. aeruginosa cytotoxicity to 99-75% of untreated, wild type levels at 50 mg/mL)”.

With `CC(=O)c1ccc(/C=C/C(=O)Nc2ccc(-c3nc4ccc([N+](=O)[O-])cc4n3O)cc2)cn1` [GN], at ExsA, the EC50 is less than 10 µM. Besides, the “Cytotoxicity at 50 μg/mL Pseudomonas” value in the series on P. aeruginosa is on record as “** (reduced P. aeruginosa cytotoxicity below 75% of untreated, wild type levels at 50 mg/mL)”.

As to `CC(=O)c1ccc(/C=C/C(=O)Nc2ccc(-c3nc4ccc(C(=O)O)cc4n3O)cc2)cc1` [GL], the EC50 at ExsA is greater than 25 µM. For the same compound, the “Cytotoxicity at 50 μg/mL Pseudomonas” value in the series on P. aeruginosa is “** (reduced P. aeruginosa cytotoxicity below 75% of untreated, wild type levels at 50 mg/mL)”.

For the compound `O=C(/C=C/c1ccc(-n2ccnc2)nc1)Nc1ccc(-c2nc3ccc([N+](=O)[O-])cc3n2O)cc1` [GS], the EC50 on ExsA lay within 10 to 25 µM. In the series on P. aeruginosa, the “Cytotoxicity at 50 μg/mL Pseudomonas” value is listed as “** (reduced P. aeruginosa cytotoxicity below 75% of untreated, wild type levels at 50 mg/mL)”.

As for `CC(=O)c1ccc(/C=C/C(=O)Nc2ccc(-c3nc4ccc(C#N)cc4n3O)cc2)cc1` [FW], the EC50 on ExsA and on LcrF (VirF) (setting [1]) was 10 to 25 µM in each case. In the series on P. aeruginosa, the “Cytotoxicity at 50 μg/mL Pseudomonas” value is reported as “** (reduced P. aeruginosa cytotoxicity below 75% of untreated, wild type levels at 50 mg/mL)”.

Take `O=C(/C=C/c1ccc(F)cc1)Nc1ccc(-c2nc3cc(F)c([N+](=O)[O-])cc3n2O)cc1` [FA, N-[4-(5-Fluoro-1-hydroxy-6-nitro-1H-benzoimidazol-2-yl)-phenyl]-3-(4-fluoro-cinnamyl)-amide]: the EC50 was 10 to 25 µM on ExsA and greater than 25 µM at LcrF (VirF) (setting [1]). Also, the “Cytotoxicity at 50 μg/mL Pseudomonas” value in the series with P. aeruginosa is given as “** (reduced P. aeruginosa cytotoxicity below 75% of untreated, wild type levels at 50 mg/mL)”.

Turning to `CC(=O)c1ccc(/C=C/C(=O)N(CC(N)=O)c2ccc(-c3nc4ccc(C#N)cc4n3O)cc2)cc1` [GQ], the EC50 on ExsA is greater than 25 µM. Moreover, in the series with P. aeruginosa, the “Cytotoxicity at 50 μg/mL Pseudomonas” value is “* (reduced P. aeruginosa cytotoxicity to 99-75% of untreated, wild type levels at 50 mg/mL)”.

Turning to `CC(=O)c1ccc(/C=C/C(=O)Nc2ccc(-c3nc4ccc(S(N)(=O)=O)cc4n3O)cc2)cc1` [GF], the concentration for a half-maximal effect (EC50) on ExsA lay within 10 to 25 µM. In addition, in the series with P. aeruginosa, the “Cytotoxicity at 50 μg/mL Pseudomonas” value is given as “* (reduced P. aeruginosa cytotoxicity to 99-75% of untreated, wild type levels at 50 mg/mL)”.

With `CS(=O)(=O)c1ccc(/C=C/C(=O)Nc2ccc(-c3nc4ccc([N+](=O)[O-])cc4n3O)cc2)cc1` [GU], the EC50 on ExsA was less than 10 µM. Moreover, the “Cytotoxicity at 50 μg/mL Pseudomonas” value in the series on P. aeruginosa is on record as “** (reduced P. aeruginosa cytotoxicity below 75% of untreated, wild type levels at 50 mg/mL)”.

Take `CC(=O)c1ccc(C(=O)Nc2ccc(-c3nc4ccc(-n5ccnc5)cc4n3O)cc2)cc1` [FZ, 4-Acetyl-N-[4-(1-hdroxy-6-imidazol-1-yl-1H-benzoimidazol-2-yl)-phenyl]-benzamide]: the EC50 on ExsA was greater than 25 µM. The “Cytotoxicity at 50 μg/mL Pseudomonas” value in the series on P. aeruginosa was “* (reduced P. aeruginosa cytotoxicity to 99-75% of untreated, wild type levels at 50 mg/mL)”.

On to `CC(=O)c1ccc(C(=O)Nc2ccc(-c3nc4ccc(-n5cccn5)cc4n3O)cc2)cc1` [FY, 4-Acetyl-N-[4-(1-hdroxyy-6-pyrazol-1-yl-1H-benzoimidazol-2-yl)-phenyl]-benzamide], for which the EC50 at ExsA and on LcrF (VirF) (setting [2]) was greater than 25 µM each time. Further, the “Cytotoxicity at 50 μg/mL Pseudomonas” value in the series on P. aeruginosa was “* (reduced P. aeruginosa cytotoxicity to 99-75% of untreated, wild type levels at 50 mg/mL)”.

As for `O=C(/C=C/c1ccc(C(F)(F)F)nc1)Nc1ccc(-c2nc3ccc([N+](=O)[O-])cc3n2O)cc1` [GT], the 50% effective concentration (EC50) at ExsA was less than 10 µM. Besides, the “Cytotoxicity at 50 μg/mL Pseudomonas” value with P. aeruginosa is listed as “** (reduced P. aeruginosa cytotoxicity below 75% of untreated, wild type levels at 50 mg/mL)”.

Turning to `CC(=O)c1ccc(/C=C/C(=O)Nc2ccc(-c3nc4ccc(Br)cc4n3O)cc2)cc1` [GD], the EC50 at ExsA is less than 10 µM. Also, the “Cytotoxicity at 50 μg/mL Pseudomonas” value in the series with P. aeruginosa is given as “* (reduced P. aeruginosa cytotoxicity to 99-75% of untreated, wild type levels at 50 mg/mL)”.

As to `O=C(/C=C/c1ccc(F)cc1)Nc1ccc(-c2nc3ccc(-n4ccnc4)cc3n2O)cc1` [FT], the EC50 on ExsA is 10 to 25 µM; on LcrF (VirF) (setting [1]) it was greater than 25 µM. For the same compound, the “Cytotoxicity at 50 μg/mL Pseudomonas” value with P. aeruginosa is given as “* (reduced P. aeruginosa cytotoxicity to 99-75% of untreated, wild type levels at 50 mg/mL)”.

As to `CC(=O)c1ccc(/C=C/C(=O)N(CC(=O)O)c2ccc(-c3nc4ccc(C#N)cc4n3O)cc2)cc1` [GO, {[(E)-3-(4-Acetyl-phenyl)-acryloyl]-[4-(6-cyano-1-hydroxy-1H-benzoimidazol-2-yl)-phenyl]-amino}-acetic acid], at ExsA, the EC50 is greater than 25 µM. The “Cytotoxicity at 50 μg/mL Pseudomonas” value with P. aeruginosa was “* (reduced P. aeruginosa cytotoxicity to 99-75% of untreated, wild type levels at 50 mg/mL)”.

`O=C(/C=C/c1ccc(F)cc1)Nc1ccc(-c2nc3ccc(-n4cccn4)cc3n2O)cc1` [FX, (E)-3-(4-Fluoro-phenyl)-N-[4-(1-hydroxy-6-pyrazol-1-yl-1H-benzoimidazol-2-yl)-phenyl]-acrylamide]: the 50% effective concentration (EC50) at ExsA and on LcrF (VirF) (setting [1]) was greater than 25 µM in each case. For the same compound, the “Cytotoxicity at 50 μg/mL Pseudomonas” value in the series on P. aeruginosa was “* (reduced P. aeruginosa cytotoxicity to 99-75% of untreated, wild type levels at 50 mg/mL)”.

`CC(=O)c1ccc(/C=C/C(=O)Nc2ccc(-c3nc4cc(OCCN5CCOCC5)c([N+](=O)[O-])cc4n3O)cc2)cc1` [FV]: the EC50 at ExsA and at LcrF (VirF) (setting [2]) was greater than 25 µM in each case. The “Cytotoxicity at 50 μg/mL Pseudomonas” value with P. aeruginosa is listed as “** (reduced P. aeruginosa cytotoxicity below 75% of untreated, wild type levels at 50 mg/mL)”.

Turning to `N#Cc1ccc2nc(-c3ccc(NC(=O)c4ccc(-n5ccnc5)cc4)cc3)n(O)c2c1` [GA], the EC50 at ExsA and at LcrF (VirF) (setting [1]) was 10 to 25 µM in each case. Besides, the “Cytotoxicity at 50 μg/mL Pseudomonas” value with P. aeruginosa is reported as “** (reduced P. aeruginosa cytotoxicity below 75% of untreated, wild type levels at 50 mg/mL)”.

On to `CC(=O)c1ccc(/C=C/C(=O)Nc2ccc(-c3nc4ccc(C(F)(F)F)cc4n3O)cc2)cc1` [GE], for which the EC50 on ExsA was 10 to 25 µM. In addition, the “Cytotoxicity at 50 μg/mL Pseudomonas” value in the series on P. aeruginosa is “* (reduced P. aeruginosa cytotoxicity to 99-75% of untreated, wild type levels at 50 mg/mL)”.

With `CC(=O)c1ccc(/C=C/C(=O)Nc2ccc(-c3nc4ccccc4n3O)cc2)cc1` [GH], the EC50 at ExsA was 10 to 25 µM. Moreover, the “Cytotoxicity at 50 μg/mL Pseudomonas” value with P. aeruginosa is given as “* (reduced P. aeruginosa cytotoxicity to 99-75% of untreated, wild type levels at 50 mg/mL)”.

For `CC(=O)c1ccc(/C=C/C(=O)N(CC(N)=O)c2ccc(-c3nc4ccc([N+](=O)[O-])cc4n3O)cc2)cc1` [GP, (E)-3-(4-Acetyl-phenyl)-N-carbamoylmethyl-N-[4-(1-hydroxy-6-nitro-1H-benzoimidazol-2-yl)-phenyl]-acrylamide], the EC50 at ExsA was greater than 25 µM. The “Cytotoxicity at 50 μg/mL Pseudomonas” value in the series on P. aeruginosa is given as “* (reduced P. aeruginosa cytotoxicity to 99-75% of untreated, wild type levels at 50 mg/mL)”.

These data come from US20090131481A1, “Transcription Factor Modulating Compounds and Methods of Use Thereof” (Paratek Pharmaceuticals, Inc., published 2009).
